Experimental data reported in US20200108032A1, “USE OF ISOFERULIC ACID, ISOFERULIC ACID-CONTAINING TRADITIONAL CHINESE MEDICINE EXTRACT AND CIMICIFUGAE RHIZOMA” (BEIJING DITAN HOSPITAL, CAPITAL MEDICAL UNIVERSITY, priority 2017, published 2020).

Tested on: CIA arthritis mice
Assay: Arthritis index of CIA arthritis mice
Assay type: in vivo, C57BL/6 mice
Details: for arthritis index: MEAN ± SEM
Description: Test materials: bovine type II collagen acetic acid solution and complete Freund's adjuvant were purchased from Chondrex company; isoferulic acid was purchased from Tianjin Yifang Technology Co., Ltd.
Animals: C57BL/6 mice, purchased from Beijing Huafukang Biotechnology Co., Ltd.
Grouping: 24 C57BL/6 mice, male, 18-20 g, after 1 day of adaptive breeding, the mice were randomly divided into 4 groups: normal control group and CIA model group, 5 mice in each group; Cimicifugae rhizoma group and isoferulic acid group, 7 mice in each group.
Model preparation and drug administration: Prepared a 2 mg/ml bovine type II collagen acetic acid solution, took 2 ml of the overnighted bovine type II collagen acetic acid solution, mixed thoroughly with 2 ml of complete Freund's adjuvant and emulsified (operation on ice), and prepared the bovine type II collagen emulsion having a final concentration of 1 mg/ml. Each mouse was injected intradermally with 0.1 ml of the emulsion. 21 days after the first immunization, mice were given a second immunization for 21 days, starting from day 0 of the second immunization, the CIA model group was given 250 μL of distilled water by gavage and the Cimicifugae rhizoma group was given 250 μL of the Cimicifugae rhizoma decoction obtained in Preparation Example 1. The crude drug dose was 2 g/kg; 250 μL of an aqueous solution of isoferulic acid was administered by gavage in the isoferulic acid group at a dose of 5 mg/kg, administered once every 3 days, and bred continuously for 21 days.
Animals were scored using the joint scoring method (grades 0-4), and the assessment was based on the degree of joint redness and swelling and joint swelling and deformation. 0 point: no redness and swelling; 1 point: redness but no swelling of the joint; 2 points: mild redness and swelling of the joint; 3 points: moderate redness and swelling of the joint; 4 points: severe redness and swelling of the joint accompanied by dysfunction of the joint. Each limb was scored separately, and the sum of the scores of each limb is the arthritis index of the mouse. The highest score is 16 points. The higher the score, the more severe the joint symptoms.

Question: What does the source list for `COc1ccc(C=CC(=O)O)cc1O` [isoferulic acid, 3-hydroxy-4-methoxycinnamic acid]?
Answer: arthritis index (Day 0 after second immunization, gavage once every 3 days (Cimicifugae rhizoma 2 g/kg, isoferulic acid 5 mg/kg), max 16 points): 0 ± 0; arthritis index (Day 3 after second immunization): 0.43 ± 0.28; arthritis index (Day 6 after second immunization): 1.0 ± 0.61; arthritis index (Day 9 after second immunization): 3.14 ± 0.77; arthritis index (Day 12 after second immunization): 5.14 ± 0.98; arthritis index (Day 15 after second immunization, CIA group 8.43): 4.43; arthritis index (Day 15 after second immunization, CIA group 8.43, listed as Isoferulic acid): 5.71 ± 0.83; swelling of paw joints (FIG. 3) (pictures of front and hind paw joints, versus CIA arthritis mice): significantly reduced
